Experimental findings from patent publication US4182896A, “Indane derivatives” (Societe Hexachimie, priority 1974, dated 1980) are described below.

Molecules are shown by their SMILES. Counter-ions that a name gives are not always drawn.

The test system of assay [1] is SPF male rats, OFA strain. Put plainly: Anti-inflammatory activity: paw swelling after subcutaneous plantar injection of carraghenine, oral administration. In kind it is in vivo. Particulars: for inhibition in vivo at 32 mg/kg: 32 mg/kg oral; for inhibition in vivo at 64 mg/kg: 64 mg/kg oral; for inhibition in vivo at 128 mg/kg: 128 mg/kg oral; for inhibition in vivo at 256 mg/kg: 256 mg/kg oral; for ED50: at the moment of greatest swelling of the controls, read-out: ED50 (50% effective dose), anti-inflammatory. As to the method:
Anti-inflammatory activity
The products to be tested are administered orally to batches of 12 SPF male rats, OFA strain, weighing 120-130 g, 2 hours and 30 minutes (1/2 dose each time) before the subcutaneous plantar injection of 0.05 ml of a 1% strength solution of carraghenine. The volume of the back paw which received the phlogogenic agent is measured at regular intervals. The 50% effective dose is calculated at the moment of greatest swelling of the controls.
The results are given in Tables I to IV below, in which the percentage reduction in the inflammation is noted.

Assay [2] deals with male mice (SPF1, OF1 strain). Put plainly: Analgesic activity: inhibition of pain reactions (abdominal twistings) after intraperitoneal phenylbenzoquinone, oral administration. The conditions noted are these: for inhibition in vivo at 32 mg/kg: 32 mg/kg oral; for inhibition in vivo at 64 mg/kg: 64 mg/kg oral; for ED50: read-out: ED50 (50% effective dose), analgesic; for percentage inhibition of pain reactions: mouse; for inhibition in vivo at 16 mg/kg: 16 mg/kg oral; for inhibition in vivo at 8 mg/kg: 8 mg/kg oral. In kind it is in vivo. How it is done:
The products tested are administered orally to batches of 6 male mice (SPF1, OF1 strain) weighing 19-20 g.
1 hour later, 0.3 ml of a 0.02% strength solution of phenylbenzoquinone is injected intraperitoneally into each mouse and, from the 5th to the 10th minute after the latter treatment, the number of pain reactions (abdominal twistings) is counted.
Table V to VIII below give the percentage inhibition of these reactions.

Where [3] appears, read: Rattus norvegicus, po, 16 mg/kg oral, carraghenine, read-out: percentage reduction in the inflammation.
The mark [4] stands for this setting: Rattus norvegicus, po, carraghenine, read-out: percentage reduction in the inflammation.
Where [5] appears, read: Mus musculus, po, read-out: percentage inhibition of pain reactions.
Where [6] appears, read: Mus musculus, po, 128 mg/kg oral, read-out: percentage inhibition of pain reactions.
[7] abbreviates: Mus musculus, po, 256 mg/kg oral, read-out: percentage inhibition of pain reactions.

A word on the ED50: it is the dose that gives a 50% effect, or the effect in half of the subjects. For `CC1Cc2ccc(CCO)cc2C1` (stereo not drawn) [Example 35, β-[2-Methyl-indanyl-(5)]-ethanol], in assay [1] (setting [3]), the inhibition in vivo at 16 mg/kg came out at 43%. Further, the values for the inhibition in vivo at 32 mg/kg in assay [1] (setting [4]) and in assay [2] (setting [5]) were 42% and 10%, respectively. Further, the inhibition in vivo at 64 mg/kg in assay [1] (setting [4]) amounted to 56%; in assay [2] (setting [5]), 27%. The inhibition in vivo at 128 mg/kg in assay [1] (setting [4]) was found to be 76%; in assay [2] (setting [6]), 69%. Moreover, the figures for the inhibition in vivo at 256 mg/kg in assay [1] (setting [4]) and in assay [2] (setting [7]) were 89% and 95%, respectively. The ED50 was 35 mg/kg in assay [1] (Rattus norvegicus, po) and 87 mg/kg in assay [2] (Mus musculus, po).

With `CCC(C(=O)O)c1ccc2c(c1)CC(C(C)C)C2` (centres unmarked) [Example 20, Dimethylaminoethanol salt of 2-ethyl-[2-isopropyl-indanyl-(5)]-acetic acid], the “percentage reduction in the inflammation” value in assay [1] (16 mg/kg oral, rat, carraghenine) is listed as 16%. For the same compound, the values for the inhibition in vivo at 32 mg/kg in assay [1] (setting [4]) and in assay [2] (setting [5]) were 24% and 26%, respectively. In assay [1] (setting [4]), the inhibition in vivo at 64 mg/kg turned out to be 25%. The inhibition in vivo at 128 mg/kg in assay [1] (setting [4]) is 38%. Also, in assay [1] (setting [4]), the inhibition in vivo at 256 mg/kg stood at 37%. The ED50 in assay [1] (Rattus norvegicus, po) was more than 256 mg/kg; in assay [2] (Mus musculus, po), 175 mg/kg. In addition, the “percentage inhibition of pain reactions” value in assay [2] (128 mg/kg oral) was found to be 27%; in assay [2] (256 mg/kg oral), 74%; in assay [2] (512 mg/kg oral), 100%.

For `CC(C)C1Cc2ccc(CC(=O)O)cc2C1` (centres unmarked) [Example 4, [2-Isopropyl-indanyl-(5)]-acetic acid], in assay [1] (setting [4]), the inhibition in vivo at 32 mg/kg amounted to 10%, the inhibition in vivo at 64 mg/kg is 19%, the inhibition in vivo at 128 mg/kg turned out to be 47% and the inhibition in vivo at 256 mg/kg was found to be 80%. In addition, the ED50 in assay [1] (Rattus norvegicus, po) was determined as 120 mg/kg. In assay [2] (setting [5]), the inhibition in vivo at 16 mg/kg is 6%, the inhibition in vivo at 32 mg/kg stood at 33% and the inhibition in vivo at 64 mg/kg came out at 70%. Also, the inhibition in vivo at 128 mg/kg in assay [2] (setting [6]) is 99%. Moreover, in assay [2] (Mus musculus, po), the ED50 was 40 mg/kg.

Take `CC(CO)c1ccc2c(c1)CC(C(C)C)C2` (stereo not drawn) [Example 33, 2-Methyl-β-[2-isopropyl-indanyl-(5)]-ethanol]: the inhibition in vivo at 8 mg/kg in assay [1] (Rattus norvegicus, po, 8 mg/kg oral, carraghenine, read-out: percentage reduction in the inflammation) came to 0%. For the same compound, the inhibition in vivo at 16 mg/kg in assay [1] (setting [3]) is 13%. For the same compound, in assay [1] (setting [4]), the inhibition in vivo at 32 mg/kg amounted to 34%, the inhibition in vivo at 64 mg/kg is 52%, the inhibition in vivo at 128 mg/kg was determined as 58% and the inhibition in vivo at 256 mg/kg stood at 63%. Moreover, the ED50 in assay [1] (Rattus norvegicus, po) is 85 mg/kg. In assay [2] (Mus musculus, po, 2 mg/kg oral, read-out: percentage inhibition of pain reactions), the inhibition in vivo at 2 mg/kg stood at 6%. Also, the inhibition in vivo at 4 mg/kg in assay [2] (Mus musculus, po, 4 mg/kg oral, read-out: percentage inhibition of pain reactions) amounted to 25%. Further, in assay [2] (setting [5]), the inhibition in vivo at 8 mg/kg came to 42%, the inhibition in vivo at 16 mg/kg stood at 68% and the inhibition in vivo at 32 mg/kg worked out at 90%. In addition, the ED50 in assay [2] (Mus musculus, po) came to 9 mg/kg.

Take `CC1CC(C)c2cc(CC(=O)O)ccc21` (centres unmarked) [Example 1, [1,3-Dimethyl-indanyl-(5)]-acetic acid]: in assay [1] (setting [4]), the inhibition in vivo at 64 mg/kg amounted to 15%, the inhibition in vivo at 128 mg/kg was 42% and the inhibition in vivo at 256 mg/kg was 88%. Moreover, in assay [1] (Rattus norvegicus, po), the ED50 stood at 130 mg/kg. In addition, in assay [2] (setting [5]), the inhibition in vivo at 16 mg/kg turned out to be 25%, the inhibition in vivo at 32 mg/kg came to 28% and the inhibition in vivo at 64 mg/kg is 67%. The inhibition in vivo at 128 mg/kg in assay [2] (setting [6]) amounted to 89%. The inhibition in vivo at 256 mg/kg in assay [2] (setting [7]) stood at 94%. Besides, in assay [2] (Mus musculus, po), the ED50 came to 43 mg/kg.

As for `CC(C(=O)OCCN1CCOCC1)c1ccc2c(c1)CC(C)(C)C2` (centres unmarked) [Example 24, Hydrochloride of the morpholino-ethyl ester of 2-methyl-[2,2-dimethyl-indanyl-(5)]-acetic acid], the inhibition in vivo at 16 mg/kg in assay [1] (setting [3]) is 7%. In addition, in assay [1] (setting [4]), the inhibition in vivo at 32 mg/kg was 21%, the inhibition in vivo at 64 mg/kg is 36%, the inhibition in vivo at 128 mg/kg was determined as 50% and the inhibition in vivo at 256 mg/kg worked out at 57%. Further, the inhibition in vivo at 512 mg/kg in assay [1] (Rattus norvegicus, po, 512 mg/kg oral, carraghenine, read-out: percentage reduction in the inflammation) stood at 73%. Further, the ED50 in assay [1] (Rattus norvegicus, po) came out at 142 mg/kg. In addition, in assay [2] (setting [5]), the inhibition in vivo at 8 mg/kg is 0%, the inhibition in vivo at 16 mg/kg was determined as 24%, the inhibition in vivo at 32 mg/kg was determined as 32% and the inhibition in vivo at 64 mg/kg came to 53%. For the same compound, in assay [2] (setting [6]), the inhibition in vivo at 128 mg/kg was determined as 97%. For the same compound, the ED50 in assay [2] (Mus musculus, po) was determined as 35 mg/kg.

Consider `CC1(C)Cc2ccc(CC(=O)O)cc2C1` [Example 13, [2,2-Dimethyl-indanyl-(5)]-acetic acid], for which the inhibition in vivo at 16 mg/kg in assay [1] (setting [3]) stood at 23%. For the same compound, in assay [1] (setting [4]), the inhibition in vivo at 32 mg/kg was 29%, the inhibition in vivo at 64 mg/kg is 37%, the inhibition in vivo at 128 mg/kg worked out at 47% and the inhibition in vivo at 256 mg/kg was 51%. Moreover, in assay [1] (Rattus norvegicus, po), the ED50 worked out at 200 mg/kg. Also, in assay [2] (setting [5]), the inhibition in vivo at 16 mg/kg was found to be 15%, the inhibition in vivo at 32 mg/kg came out at 30% and the inhibition in vivo at 64 mg/kg stood at 71%. Besides, the inhibition in vivo at 128 mg/kg in assay [2] (setting [6]) stood at 83%. Also, the ED50 in assay [2] (Mus musculus, po) was determined as 46 mg/kg.

Regarding `CC(C(=O)OCCN1CCCCC1)c1ccc2c(c1)CC(C(C)C)C2` (centres unmarked) [Example 30, Oxalate of the piperidine-ethyl ester of 2-methyl-[2-isopropyl-indanyl-(5)]-acetic acid], the inhibition in vivo at 4 mg/kg in assay [1] (Rattus norvegicus, po, 4 mg/kg oral, carraghenine, read-out: percentage reduction in the inflammation) came to 10%. In assay [1] (setting [3]), the inhibition in vivo at 16 mg/kg turned out to be 32%. In addition, in assay [1] (setting [4]), the inhibition in vivo at 64 mg/kg came to 55%, the inhibition in vivo at 128 mg/kg was 47% and the inhibition in vivo at 256 mg/kg worked out at 52%. In assay [2] (setting [5]), the inhibition in vivo at 16 mg/kg was determined as 11%, the inhibition in vivo at 32 mg/kg was 32% and the inhibition in vivo at 64 mg/kg worked out at 73%. In addition, the inhibition in vivo at 128 mg/kg in assay [2] (setting [6]) was 99%. For the same compound, the ED50 in assay [2] (Mus musculus, po) worked out at 37 mg/kg.

Regarding `CCC1Cc2ccc(C(C)C(=O)OCCN3CCOCC3)cc2C1` (centres unmarked) [Example 26, Oxalate of the morpholino-ethyl ester of 2-methyl-[2-ethyl-indanyl-(5)]-acetic acid], the inhibition in vivo at 16 mg/kg in assay [1] (setting [3]) worked out at 38%. In assay [1] (setting [4]), the inhibition in vivo at 32 mg/kg turned out to be 47%, the inhibition in vivo at 64 mg/kg is 54%, the inhibition in vivo at 128 mg/kg turned out to be 68% and the inhibition in vivo at 256 mg/kg is 70%. For the same compound, the ED50 in assay [1] (Rattus norvegicus, po) worked out at 40 mg/kg. Moreover, in assay [2] (setting [5]), the inhibition in vivo at 8 mg/kg worked out at 17%, the inhibition in vivo at 16 mg/kg was 52%, the inhibition in vivo at 32 mg/kg amounted to 69% and the inhibition in vivo at 64 mg/kg came out at 94%. Further, the ED50 in assay [2] (Mus musculus, po) is 18 mg/kg.

In the case of `CC(C)C1Cc2ccc(CC(=O)OCCN3CCOCC3)cc2C1` (centres unmarked) [Example 8, Hydrochloride of the morpholino-ethyl ester of [2-isopropyl-indanyl-(5)]-acetic acid], the inhibition in vivo at 32 mg/kg in assay [1] (setting [4]) was found to be 17%; in assay [2] (setting [5]) it was 10%. Also, the inhibition in vivo at 64 mg/kg in assay [1] (setting [4]) is 23%; in assay [2] (setting [5]), 67%. The inhibition in vivo at 128 mg/kg in assay [1] (setting [4]) was 52%; in assay [2] (setting [6]), 73%. Also, the inhibition in vivo at 256 mg/kg in assay [1] (setting [4]) was found to be 62%; in assay [2] (setting [7]), 90%. Moreover, the ED50 in assay [1] (Rattus norvegicus, po) amounted to 150 mg/kg; in assay [2] (Mus musculus, po) it was 70 mg/kg.
